We go through two compounds from patent publication US12048687B2, “Methods of recruiting SDF-producing macrophages” (MedRegen, LLC, priority 2013, dated 2024).

Molecules are shown by their SMILES. “Also recorded” adds a separate entry of the source.

Test [1] deals with full-thickness skin excisional wounds. The test is described as follows: in vivo full-thickness excisional wound model, mice. On the set-up: species or system mouse (C57BL/6). The conditions noted are these: for day of complete wound closure: 5-mm excisions, s.c. Tacrolimus 0.1 mg kg-1 daily, AMD3100 1.0 mg kg-1 every other day, saline day 12. An excerpt:
In vivo excisional wound model. Animals aged 8-12 weeks were anesthetized with Isoflurane. The dorsal skin was shaved and cleaned with betadine and 70% ethanol. In mice, the midline and four points 1 cm on each side of the midline were marked by pen. Two points were at the level of the costal margin and two at the iliac crests designating the sites for excision (FIG. 1A). In rats, the four excisional wounds were placed 1 cm to either side of the midline and 1 cm above and below the midpoint between the costal margin and the iliac […] (FIG. 7a). The sterile disposable biopsy punch (5 mm in diameter; Miltex) was aligned vertically over the center of the mark and punched through the skin and Panniculus carnosus by applying pressure and twisting at the same time. The same procedure was repeated, generating four wounds on each animal (Tomlinson and Ferguson, 2003). The animals were house singly after regaining consciousness. For the mouse splinted wound model, one 5 mm excision was made on each side of the midline on the mid back. The donut-shaped, 0.5 mm-thick silicone splints with a diameter two times that of the wound (Grace Bio-Laboratories, Bend, OR) were then centered, sutured and glued (Krazy Glue®; Elmer's Inc., Columbus, OH) (FIG. 1F; Galiano et al., 2004). […] Each wound site was digitally photographed at the indicated time intervals, and wound areas were determined on photographs using Adobe Photoshop (version 7.0; Adobe Systems, San Jose, CA). Changes in wound areas over time were expressed as the percentage of the initial wound areas (FIG. 1). Example 1: AMD3100 plus low-dose Tacrolimus accelerated wound healing after full-thickness skin excision. Four full-thickness wounds were generated by 5-mm diameter circular excisions on the shaved back of a wild-type C57/B6 mouse (FIG. 1A). Each wound site was photographed digitally at the indicated time intervals, and wound areas were calculated using Adobe Photoshop software. Changes in wound areas over time were expressed as the percentage of the initial wound areas (FIG. 1b). […] All wound evaluations were double blinded.

Another test relates to splinted skin wounds. Nature of the test: excisional wound splinting model, mice. Type of test: in vivo, mouse. The conditions noted are these: low-dose regimen, versus saline.
The subject of test [2] is hair follicles and scar in healed wounds. The test is described as follows: histology and hair follicle quantification of re-epithelialized wounds, mice. The test is classed as in vivo, mouse. As to conditions: day 15. The source says:
Histology and microscopy. Tissues from wound sites were collected at day 3, 5, 7, 9 and 15 after injury. Quantitative analysis of hair follicles: The number of regenerated hair follicles was quantified in a double-blind fashion. In nonwounded skin, the number of hair follicles in the area from the same location as the wound were counted and compared to experimental groups (FIG. 2A and FIG. 9A; broken lines indicated wound margin). Masson's trichrome (commercial kit from Polysciences, Inc. Warrington, PA) was used to detect collagen fibers (blue color).

Test [3] deals with c-Kit+, CD34+, CD133+ cells in wound tissue. The test is described as follows: immunofluorescence staining of wound sections for stem cell markers. The test is classed as in vivo, mouse. The conditions noted are these: mice, 5 days post-injury. The method, then: (§1) Immunofluorescence staining: For the immunofluorescence staining, frozen sections were fixed with acetone (−20° C.) for 10 min and dried for 1 h at room temperature. PBS containing 1% BSA and 5% normal donkey serum was used to block nonspecific background. Sections were incubated for 1.5 h at room temperature with primary antibodies included: rabbit polyclonal antibody specific for CD133 (1:100, ab19898, Abcam, Cambridge, MA), rabbit polyclonal antibody specific for c-Kit (1:100, sc-168, Santa Cruz Biotechnology, Santa Cruz, CA), goat polyclonal antibody specific for CD34 (1:100, AF4117, R&D Systems, Minneapolis, MN), mouse monoclonal antibody specific for SDF-1 (1:100, MAB310, R&D Systems), FITC-conjugated rat monoclonal antibody specific for F4/80 (1:100, 11-4801, eBioscience, San Diego, CA), mouse monoclonal antibody specific for α-SMA (1:100, ab7817, Abcam), rat monoclonal antibody specific for CD31 (1:100, 14-0311, eBioscience) or rabbit polyclonal antibody specific for HGF (1:100, sc-7949, Santa Cruz), or the combinations of two of them for double fluorescence staining. […] Tissue sections were analyzed by confocal microscopy (Carl Zeiss Microscopy, Thornwood, NY).

Test [4] deals with α-smooth muscle actin (SMA) positive myofibroblast cells. Nature of the test: immunofluorescence staining for α-SMA. The conditions noted are these: mice, five days; versus saline group 1. Type of test: in vivo, mouse. The method, then:
as §1

The test system of test [5] is lacZ and GFP positive (CD133 lineage) cells in granulation tissues. Nature of the test: CD133 lineage tracing in wounded CD133+/C-L mice. The test is classed as in vivo, mouse (CD133+/C-L). The conditions noted are these: 5 days after wounding, versus saline group 1.
Procedure: To activate CreERT2 expressed from the CD133C-L locus, thereby irreversibly activating GFP expression in CD133+ cells and their progeny, 7 days prior to surgery, adult mT/mG; CD133+/C-L-RosaEGFP mice were injected intraperitoneally with 5.0 mg of tamoxifen (Sigma) dissolved in corn oil (FIG. 6a; Muzumdar et al., 2007). […] Animal were sacrificed by CO2 euthanasia at indicated time points and skin samples including and surrounding the wound area were excised, fixed in 2% paraformaldehyde overnight at 4° C., cryo-protected in 30% sucrose overnight at 4° C. and frozen in OCT (optimum cutting temperature). Frozen sections were obtained using a Leica cryostat and slides were washed in PBS for 5 min. The lacZ analysis was performed with commercial β-Galactosidase staining kit (BioVision Inc. Milpitas, CA) utilizes X-gal as the substrate. […] For GFP microscopy, the skin sections were overlaid with mounting medium with DAPI (Vector Laboratories Inc., Burlingame, CA) and imaged with a confocal fluorescence microscopy (Carl Zeiss Microscopy, Thornwood, NY). To identify structure of lacZ- and GFP-positive tissues and cells, the same section was sequentially stained with DAPI for GFP fluorescence studies, followed by staining with X-gal and hematoxylin and eosin (H&E) (IHC World, Woodstock, MD), according to the manufacturer's instructions. […]
Test [6] concerns skin excisional wounds in diabetic rats. The test is described as follows: skin excisional wound healing in STZ-induced diabetic rats. The conditions noted are these: Tacrolimus 0.1 mg/kg daily, AMD3100 1.0 mg/kg every two days s.c., saline day 23. The test is classed as in vivo, rat (Lewis). The source says:
Diabetic rat model. Streptozotocin (STZ) is an antibiotic that can cause pancreatic beta-cell destruction, so it is widely used experimentally as an agent capable of inducing insulin-dependent diabetes mellitus (IDDM), also known as type 1 diabetes mellitus (T1DM). The most common animal model of human diabetes is streptozotocin (STZ)-induced diabetes in the rat. Streptozotocin (STZ)-induced diabetic rat model used to determine the skin wound healing. All rats (aged at 12-16 weeks) developed diabetes (blood glucose >450 mg/dL) 2 weeks after STZ injection (50 mg/kg, i.p.). The four excisional wounds were placed 1 cm to either side of the midline and 1 cm above and below the midpoint between the costal margin and the iliac crests. The sterile disposable biopsy punch (5 mm in diameter; Miltex) was aligned vertically over the center of the mark and punched through the skin and Panniculus carnosus by applying pressure and twisting at the same time. The same procedure was repeated, generating four wounds on each animal. Treatment and wound measurement. […] Each wound site was digitally photographed at the indicated time intervals, and wound areas were determined on photographs using Adobe Photoshop (version 7.0; Adobe Systems, San Jose, CA). Changes in wound areas over time were expressed as the percentage of the initial wound areas. All wound evaluations were double blinded.

For test [7], the system named is full-thickness burn wounds. Nature of the test: burn wound model in mice. Type of test: in vivo, mouse. As to conditions: burned mice; Tacrolimus 0.1 mg/kg daily, AMD3100 1.0 mg/kg every two days s.c.; saline day 26. The method, then:
Burn wound model in mice. Mice aged […] were anesthetized with 3% isoflurane (Baxter Healthcare Co., Deerfield, IL, USA) using an anesthesia machine, shaved on the dorsum and depilated with Nair cream (Church & Dwight Co., Princeton, NJ, USA). The burn wound was generated as previously reported (Arch Surg 2010; 145: 259-266). Briefly, a custom made 100-g aluminum rod was heated in a 100° C. water bath for 5 min. One burns of 1.2-cm diameter were produced on the dorsum of each mouse. To assure burn uniformity, only the weight of the rod provided pressure to the skin surface. Contact time of 4 s measured with a metronome was chosen to produce a standardized full-thickness burn. The burns were third degree including destruction of the skin, subcutaneous tissue and the Panniculous carnosus. Buprenorphine (0.1 mg/kg) was administrated subcutaneously for analgesia. Treatment and wound measurement. […] Each wound site was digitally photographed at the indicated time intervals, and wound areas were determined on photographs using Adobe Photoshop (version 7.0; Adobe Systems, San Jose, CA). Changes in wound areas over time were expressed as the percentage of the initial wound areas. All wound evaluations were double blinded.

The subject of test [8] is cell migration stimulated by CXCL12. The conditions noted are these: cited from earlier work.
The next test relates to SDF-1 mRNA. Nature of the test: semi-quantitative RT-PCR of granulation tissues, SDF-1. Type of test: in vivo, mouse. As to conditions: mice, 5 days post-injury. On the procedure:
Semiquantitative reverse transcription polymerase chain reaction analysis. Skin specimens were kept frozen at −80° C. until homogenized for RNA extraction using the TRIzol Reagent (Invitrogen, Carlsbad, CA, USA). First strand cDNA synthesis was then performed on 5 μg of total RNA using the superscript first-strand synthesis system for reverse transcription polymerase chain reaction (RT-PCR; Invitrogen) according to the manufacturer's instructions. The PCR contained 1 μL of deoxynucleoside triphosphate mix (10 mM each dNTP), 1 μL of 10 μM each primer, 0.4 μL, (5 IU μL−1) of Platinum Taq polymerase (Invitrogen), 1.5 μL of 50 mM MgCl2 and 2 μL […] as template in a 50 μL reaction solution. Thermal cycling was started with one cycle at 94° C. for 4 min. This was followed by 25-35 cycles at 94° C. for 30 s, 59° C. for 30 s, 72° C. for 30 s and 72° C. for final extension for 10 min. PCR products were electrophoresed on 1.2% agarose gels and visualized with GelStar® Stain (Lonza Rockland Inc., Rockland, ME). […] The expression levels of target mRNA were quantified by densitometry and normalized with the corresponding internal control.

For test [9], the system named is SDF-1 and F4/80 positive cells (macrophages) in wound sites. Nature of the test: immunofluorescence staining for SDF-1 and F4/80. The test is classed as in vivo, mouse. The conditions noted are these: mice, 5 days post-injury. On the procedure: as §1

Source text for splinted skin wounds: In vivo excisional wound model. Animals aged 8-12 weeks were anesthetized with Isoflurane. The dorsal skin was shaved and cleaned with betadine and 70% ethanol. In mice, the midline and four points 1 cm on each side of the midline were marked by pen. Two points were at the level of the costal margin and two at the iliac crests designating the sites for excision (FIG. 1A). […] The sterile disposable biopsy punch (5 mm in diameter; Miltex) was aligned vertically over the center of the mark and punched through the skin and Panniculus carnosus by applying pressure and twisting at the same time. The same procedure was repeated, generating four wounds on each animal (Tomlinson and Ferguson, 2003). The animals were house singly after regaining consciousness. For the mouse splinted wound model, one 5 mm excision was made on each side of the midline on the mid back. The donut-shaped, 0.5 mm-thick silicone splints with a diameter two times that of the wound (Grace Bio-Laboratories, Bend, OR) were then centered, sutured and glued (Krazy Glue®; Elmer's Inc., Columbus, OH) (FIG. 1F; Galiano et al., 2004).
To deter this mechanism, we performed the excisional wound splinting model, where a splinting ring is bonded tightly to the skin around the wound (FIG. 1e). The wound therefore heals through granulation and re-epithelialization, a process similar to the healing of most human skin defects.

For `c1cc(CN2CCCNCCNCCCNCC2)ccc1CN1CCCNCCNCCCNCC1` [AMD3100, 1,1′-[1,4-phenylenebis(methylene)]bis-1,4,8,11-tetraazacyclo-tetradecane], the “day of complete wound closure” value in [1] amounted to 11 days; in [6] it was 21 days; in test [7], 23 days. The “effect of high doses on skin wound healing” value in test [1] (Tacrolimus 1.0 mg kg-1 daily, AMD3100 5.0 mg kg-1 every two days, versus saline) is listed as “no significant difference; also recorded: failed to demonstrate significant difference”. Also, the “wound repair in splinted wounds” value with splinted skin wounds is on record as “accelerated”. Moreover, the “number of hair follicles in re-epithelialized wound” value in test [2] was “few hair follicles”. Also, the “number of CD133+, c-Kit+ and CD34+ cells in wound tissue sections” value in [3] is “relatively mild recruitment of stem cells”. For the same compound, the “number of α-SMA positive myofibroblast cells in granulation tissues” value in test [4] is on record as “increased”. The “numbers of lacZ and GFP positive cells in granulation tissues” value in [5] was “significantly higher”. The IC50 in test [8] was 51 nM.
Take `C=CC[C@@H]1/C=C(\C)C[C@H](C)C[C@H](OC)[C@H]2O[C@@](O)(C(=O)C(=O)N3CCCC[C@H]3C(=O)O[C@H](/C(C)=C/[C@@H]3CC[C@@H](O)[C@H](OC)C3)[C@H](C)[C@@H](O)CC1=O)[C@H](C)C[C@@H]2OC` [Tacrolimus]: the “day of complete wound closure” value worked out at 11 days in [1], 21 days in test [6] and 21 days in [7]. Moreover, the “wound repair in splinted wounds” value in the test with splinted skin wounds was “accelerated”. The “number of hair follicles in re-epithelialized wound” value in test [2] is on record as “few hair follicles”. In the test with SDF-1 mRNA, the “SDF-1 mRNA expression in granulation tissues” value is reported as “significantly increased”. The “number of SDF-1 and F4/80 positive cells in wound sites” value in test [9] is “significantly greater”. Further, the “number of α-SMA positive myofibroblast cells in granulation tissues” value in [4] was “increased”. The “numbers of lacZ and GFP positive cells in granulation tissues” value in test [5] is “significantly higher”.
